Values quoted from earlier work, collected in patent US20040229941A1, “Analeptic and antidepressant combinations” (Cephalon, Inc., priority 2003, published 2004).

Conditions: at 6 weeks of antidepressant therapy

For `CNCCC(Oc1ccc(C(F)(F)F)cc1)c1ccccc1` (stereo not shown) [fluoxetine], the response is listed as “about 50%”.
